Reference: US20260034227A1, “AZLACTONE-BASED POLYMERS AS A SCAFFOLD FOR DIVERSE APPLICATIONS IN DRUG AND GENE DELIVERY” (University of Mississippi, priority 2022, published 2026)

Assay: Pharmacokinetics of DBAC generated from polymer-drug conjugate (UPLC-MS/MS)
Assay type: in vivo, CD-1 mice
Details: CD1 mice; for F: oral relative to intravenous, 10 mg/kg
Description: UPLC-MS/MS. Chromatography was performed on an AcquityTM UPLC system (Waters Corp, Milford, MA) with an autosampler temperature at 10° C. Waters Acquity UPLC® BEH Phenyl column (3.0×50 mm, 1.7 μm particle size) was used for chromatographic separation with linear gradient elution consisting of (A) 90% acetonitrile and (B) 10% of 0.2% formic acid in Milli-Q water as mobile phases. The flow rate was set at 0.30 mL/min, and the injection volume was 2 μL. An Acquity Tandem Quadrupole Mass Detector (Xevo TQ-S; Waters Corp, Milford, MA) in positive electrospray ionization mode was used for mass spectrometric detection. For collision-induced dissociation, argon was used as collision gas. The cone voltage and collision energy were set at 40 V and 24 V for DBAC and 40 V and 26 V for the tolbutamide (IS), respectively. Quantification was performed using the monitoring of multiple reaction monitoring (MRM) of following transitions: m/z 276/186 for DBAC and m/z 271/90.9 for IS. […] Pharmacokinetics of […]. All procedures were performed in compliance with the University of Mississippi Animal Care and Use Committee and following the National Institutes of Health (NIH) guidelines. […] Either DBAC or […] were administered at 10 mg/kg through oral gavage or retro-orbital IV injection at a volume of 0.1 mL. The vehicle for DBAC was 10% absolute alcohol, 10% cremophor and 80% Milli-Q water, whereas the […] polymer was administered in 100% PBS. […] Blood was collected by cardiac puncture and stored in K2 EDTA tubes (SAI Infusion Technologies, #MVCB-E-300). Mice were then perfused through heart with PBS (Life Technologies, #10-010-072). Plasma was harvested by centrifuging the blood using Eppendorf […] Centrifuge (Germany) at 5,000 rpm for 5 min and stored frozen at -80±10° C. until analysis. […] Sample preparation for DBAC detection. A simple protein precipitation method was followed for extraction of DBAC from mice plasma. To an aliquot of 50 μL of plasma or tissue (GI tract, heart, lung, spleen, liver or kidney) samples, tolbutamide (internal standard, IS) solution (5 μL of 20 ng/ml) was added and mixed for 15 s on a cyclomixer (Thermo Scientific, IN, USA). After precipitation with 500 μL of acetonitrile, the mixture was vortexed for 2 min, followed by centrifugation for 10 min at 14,000 rpm on an accuSpin Micro 17R (Fisher Scientific, USA) at 5° C. An aliquot of 150 μL of clear supernatant was transferred into vials and 2 μL was injected into the UPLC-MS/MS system for analysis. The primary stock solutions of DBAC and tolbutamide (IS) were prepared in methanol at 1.0 mg/mL concentration. Working solutions of calibration standards and quality control (QC) samples were prepared by dilution with methanol and stored at -20° C. A working stock of the IS solution (20 ng/ml) was prepared in methanol and stored at -20° C.

[1] = GI tract, intravenous 10 mg/kg conjugate
[2] = GI tract, oral 10 mg/kg conjugate
[3] = Heart, intravenous 10 mg/kg conjugate
[4] = Kidney, intravenous 10 mg/kg conjugate
[5] = Kidney, oral 10 mg/kg conjugate
[6] = Liver, intravenous 10 mg/kg conjugate
[7] = Lung, intravenous 10 mg/kg conjugate
[8] = Plasma, intravenous 10 mg/kg conjugate
[9] = Plasma, oral 10 mg/kg conjugate
[10] = Spleen, intravenous 10 mg/kg conjugate

Substance: N-(2-hydroxyethyl)-N,N-dimethyl-2-oxo-2-(2-oxo-2H-chromen-3-yl)ethanaminium [DBAC]
- AUC0-α [1]: 18544 ± 156 ng·h/g
- CO [1]: 4899 ± 1104 ng/g
- t1/2 [1]: 6.97 ± 1.03 h
- AUC0-α [2]: 95643 ± 1023 ng·h/g
- Tmax [2]: 1.25 ± 0.53 h
- F (GI tract): >100 ± 47.5%
- AUC0-α [3]: 8914 ± 512 ng·h/g
- CO [3]: 4961 ± 715 ng/g
- t1/2 [3]: 2.20 ± 0.78 h
- AUC0-α (Heart, oral 10 mg/kg conjugate): 1008 ± 95.6 ng·h/g
- Tmax (Heart, oral 10 mg/kg conjugate): 4.38 ± 0.53 h
- F (Heart): 11.3 ± 2.57%
- AUC0-α [4]: 10575 ± 1910 ng·h/g
- CO [4]: 41296 ± 2103 ng/g
- t1/2 [4]: 3.49 ± 0.59 h
- AUC0-α [5]: 490 ± 101 ng·h/g
- Tmax [5]: 0.50 ± 0.00 h
- F (Kidney): 4.64 ± 2.59%
- AUC0-α [6]: 17457 ± 3832 ng·h/g
- CO [6]: 36898 ± 2501 ng/g
- t1/2 [6]: 2.24 ± 0.37 h
- AUC0-α (Liver, oral 10 mg/kg conjugate): 1464 ± 346 ng·h/g
- Tmax (Liver, oral 10 mg/kg conjugate): 0.63 ± 0.25 h
- F (Liver): 8.38 ± 1.98%
- AUC0-α [7]: 1772 ± 141 ng·h/g
- CO [7]: 1326 ± 202 ng/g
- t1/2 [7]: 3.73 ± 0.47 h
- AUC0-α (Lung, oral 10 mg/kg conjugate): 1315 ± 85.6 ng·h/g
- Tmax (Lung, oral 10 mg/kg conjugate): 1.25 ± 0.68 h
- F (Lung): 74.2 ± 25.3%
- AUC0-α [8]: 1586 ± 125 ng·h/mL
- CO [8]: 7216 ± 1023 ng/mL
- t1/2 [8]: 1.09 ± 0.12 h
- AUC0-α [9]: 120 ± 65.0 ng·h/mL
- Cmax [9]: 119 ± 25.3 ng/mL
- Tmax [9]: 0.75 ± 0.29 h
- F (Plasma): 7.59 ± 2.48%
- AUC0-α [10]: 1089 ± 124 ng·h/g
- CO [10]: 1026 ± 248 ng/g
- t1/2 [10]: 2.27 ± 0.55 h
